From EP2435019B1, “DODECA-2E,4E-DIENE AMIDES AND THEIR USE AS MEDICAMENTS AND COSMETICS” (Dr. August Wolff GmbH & Co. KG Arzneimittel, priority 2009, dated 2010)

Key:
Anandamide transport = Anandamide transport (human) cellular functional assay (assay F); assay type: cell-based; details: human U-937 cells, 0.1 µM [3H]-Anandamide, 20 min (assay F)
Method: Anandamide transport is determined using human U-937 cells as receptor source. [3H]-Anandamide (0.1 Ci/mmol), final concentration 0.1 µM is used as substrate. AM-404 is used as reference compound. Reactions are carried out in KRH buffer (pH 7.4) at 37°C for 20 min. The reaction is terminated by rapid vacuum filtration onto glass fiber filters. Radioactivity trapped onto filters is determined and compared to control values in order to ascertain any interactions of test compound with anandamide uptake (Hiiliard C.J. The movement of N-arachidonylethanolamide (anandamide) across cellular membranes. Chem. Physics Lipids. 2008;108:123-134, with modifications).

[1] = molecular target: T1, human recombinant Fatty acid amide hydrolase (Homo sapiens, UniProt O00519); test: Inhibition of human recombinant FAAH, fluorometric method (assay G); assay type: biochemical; details: human recombinant enzyme, AMC-anandamide substrate (assay G)
T1 sequence (O00519 1-579): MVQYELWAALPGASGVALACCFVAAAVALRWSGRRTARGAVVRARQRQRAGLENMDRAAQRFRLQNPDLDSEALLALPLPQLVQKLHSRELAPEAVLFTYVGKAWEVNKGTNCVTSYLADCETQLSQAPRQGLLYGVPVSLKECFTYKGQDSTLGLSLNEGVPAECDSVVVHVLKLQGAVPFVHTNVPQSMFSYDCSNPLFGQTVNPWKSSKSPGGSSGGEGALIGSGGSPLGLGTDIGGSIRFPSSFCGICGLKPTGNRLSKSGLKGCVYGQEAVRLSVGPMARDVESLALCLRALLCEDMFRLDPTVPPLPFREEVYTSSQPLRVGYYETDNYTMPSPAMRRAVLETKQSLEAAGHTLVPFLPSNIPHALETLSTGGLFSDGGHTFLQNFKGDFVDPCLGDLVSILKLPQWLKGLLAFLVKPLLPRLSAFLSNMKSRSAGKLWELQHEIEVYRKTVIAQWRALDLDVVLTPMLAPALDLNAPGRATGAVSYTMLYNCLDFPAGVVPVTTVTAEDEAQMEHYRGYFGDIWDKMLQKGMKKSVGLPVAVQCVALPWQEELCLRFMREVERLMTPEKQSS
Method: FAAH activity is measured using the modified method described by Omeir et al., Arachidonoyl ethanolamide-[1,2-14C] as a substrate for anandamide amidase. Life Sci. 1995;56(23-24):1999-2005. Human recombinant enzyme is preincubated with reference compound (methylarachidonlyfluorophosphonate, MAFP) and test compounds for 30 min at room temperature in 50 mM Tris containing 1 mM EDTA and 0.1% fatty acid free BSA (pH 8.0). Substrate (7-amino-4-methyl coumarin-arachidonamide, AMC-anandamide) is then added and incubated for 30 min at room temperature. The reaction is stopped by the addition of 2.5 µl of 10 µM URB597. Released 7-amino-4-methyl coumarin (AMC) is detected by fluorometry in order to ascertain any interactions of test compounds with the FAAH enzyme.

[2] = test system: Arachidonoylethanolamide Transport (AEAT); test: Cellular uptake of [3H]-AEA in U937 cells (assay C); assay type: cell-based; details: Homo sapiens, U-937; [3H]-AEA uptake, assay C (Tables 2 and 3)
CB1 = molecular target: T2, CB1 (Homo sapiens, UniProt P21554); test: Radioligand displacement assay on CB1 receptor; assay type: binding
T2 construct: purchased Perkin Elmer RBHCB1M
T2 sequence (P21554 whole entry): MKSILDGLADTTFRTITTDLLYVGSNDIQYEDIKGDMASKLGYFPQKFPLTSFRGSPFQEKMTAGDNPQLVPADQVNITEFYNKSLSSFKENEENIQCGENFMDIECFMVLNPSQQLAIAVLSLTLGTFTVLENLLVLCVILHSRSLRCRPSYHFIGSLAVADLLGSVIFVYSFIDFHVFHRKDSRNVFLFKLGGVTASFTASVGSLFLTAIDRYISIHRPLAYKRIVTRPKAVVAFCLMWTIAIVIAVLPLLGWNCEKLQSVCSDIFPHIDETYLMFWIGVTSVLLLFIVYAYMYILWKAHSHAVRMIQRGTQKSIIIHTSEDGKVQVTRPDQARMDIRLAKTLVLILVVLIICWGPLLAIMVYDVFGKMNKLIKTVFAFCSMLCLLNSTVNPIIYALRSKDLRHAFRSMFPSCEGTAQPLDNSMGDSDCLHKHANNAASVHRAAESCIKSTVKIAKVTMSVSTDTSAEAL
Method: (§1) For the CB1 receptor, binding experiments were performed in the presence of 0.39 nM of the radioligand [^3H]CP55,940 (168 Ci/mmol) (Perkin Elmer, Waltham, MA, US) at 30°C in siliconized glass vials together with 7.16 µg of membrane recombinantly over-expressing CB1 (No. RBHCB1M, Perkin Elmer, Waltham, MA, US), which was resuspended in 0.2 mL (final volume) binding-buffer (50 mM TRIS-HCl, 2.5 mM EGTA, 5 mM MgCl2, 0.5 mg/mL fatty acid free BSA, pH 7.4). Test compounds were present at varying concentrations and the nonspecific binding of the radioligand was determined in the presence of 10 µM CP55,940 (Tocris Cookson Ltd., Bristol, UK). After 1.5 h incubation, the suspension was rapidly filtered through 0.05% polyethylenimine pre-soaked GF/C glass fiber filters on a 96-well cell harvester and washed nine times with 0.5 mL ice-cold washing-buffer (50 mM TRIS-HCl, 2.5 mM EGTA, 5 mM MgCl2, 2% BSA, pH 7.4). Radioactivity on filters was measured with a Beckman LS 6500 scintillation counter in 3 mL Ultima Gold scintillation liquid (Perkin Elmer, Waltham, MA, US). Data collected from three independent experiments performed in triplicates were normalized between 100% and 0% specific binding for [^3H]CP55,940. […] Derived from the dissociation constant (KD) of [^3H]CP55,940 and the concentration-dependent displacement (IC50 value), inhibition constants (Ki) of competitor compounds were calculated using the Cheng-Prusoff equation [Ki = IC50/(1+ L/KD)].

[3] = Critical micelle concentration (CMC) measurement, dye micellization; assay type: physicochemical; details: fluorescein dye micellization in water, pH 6.9, room temperature
Method: Dye micellization was carried out with a modified version of the method described by Eliyahu et al., Novel dextran-spermine conjugates as transfecting agents: comparing water-soluble and micellar polymers. […] Experiments were carried out on 96-well microtiter plates (excitation at 485 nm, emission at 535 nm). Since the emission of fluorescein is pH-dependent, the pH of the mixture was kept constant at 6.9. The CMC range was determined as the concentration range where the first statistically significant increase in fluorescence was detected.

FAAH = molecular target: T3, FAAH (Sus scrofa, UniProt Q9TUI8); test: Fatty acid amide hydrolase (FAAH) inhibition, pig brain homogenate (assay D); assay type: biochemical
T3 construct: 165 µl of diluted pig brain homogenate; from tissue; host or cells: pig brain homogenate
T3 sequence (Q9TUI8 1-579): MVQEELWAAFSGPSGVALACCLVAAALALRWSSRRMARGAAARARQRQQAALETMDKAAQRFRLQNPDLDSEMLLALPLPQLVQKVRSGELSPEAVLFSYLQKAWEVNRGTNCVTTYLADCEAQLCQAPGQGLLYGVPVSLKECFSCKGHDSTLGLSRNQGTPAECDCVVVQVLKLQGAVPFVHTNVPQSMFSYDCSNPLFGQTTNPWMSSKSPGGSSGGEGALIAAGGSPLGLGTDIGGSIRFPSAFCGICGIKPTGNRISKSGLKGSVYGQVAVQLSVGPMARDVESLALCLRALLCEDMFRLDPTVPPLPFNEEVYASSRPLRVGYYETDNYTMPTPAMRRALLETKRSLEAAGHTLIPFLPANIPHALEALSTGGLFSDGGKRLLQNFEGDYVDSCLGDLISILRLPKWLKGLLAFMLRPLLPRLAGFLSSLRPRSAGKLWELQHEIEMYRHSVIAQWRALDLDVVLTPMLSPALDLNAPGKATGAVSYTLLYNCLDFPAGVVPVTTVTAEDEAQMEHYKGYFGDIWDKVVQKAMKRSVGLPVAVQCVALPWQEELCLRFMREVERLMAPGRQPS
Method: FAAH activity was assessed using pig brain homogenate according to the method described by Omeir et al., Arachidonoyl ethanolamide-[1,2-14C] as a substrate for anandamide amidase. Life Sci. 1995;56(23-24):1999-2005, and adapted by Fowler et al., Ibuprofen inhibits rat brain deamidation of anandamide at pharmacologically relevant concentrations. Mode of inhibition and structure-activity relationship. J Pharmacol Exp Ther. 1997 Nov;283(2):729-34. Briefly, 10 µl of test compounds at the adequate concentration or solvent were incubated at 37°C for 20 min with 165 µl of diluted pig brain homogenate in 10 mM Tris-HCl and 1 mM EDTA, pH 7.6 (corresponding to 100 µg/ml of total protein), 1% w/v fatty acid free BSA (Sigma, San Louis, MO, US) and 25 µl of a mixture 1:1 of nonradioactive AEA [^3H]-AEA (60 Ci mmol^-1) (concentration in the assay was 2 µM). Successively, 400 µl of a mixture 1:1 (v/v) of methanol:chloroform was added at each sample and, after vigorous vortexing, aqueous and organic phases were separated by centrifugation at 10000 rpm for 10 min. The radioactivity associated to the [^3H]-ethanolamine (produced by FAAH-catalysed breakdown of [^3H]-AEA) was measured upon addition of 3 ml of Ultima Gold scintillation liquid (Perkin Elmer, Waltham, MA, US) to 200 µl of the aqueous (upper) phase, using a Beckman LS6500 scintillation counter. Results were expressed as % of FAAH activity vs. pig brain homogenate treated only with solvent.

CB2 = CB2 (Homo sapiens, UniProt P34972); test: Radioligand displacement assay on CB2 receptor; assay type: binding; set-up: purchased Perkin Elmer RBXCB2M
CB2, sequence (P34972 whole entry): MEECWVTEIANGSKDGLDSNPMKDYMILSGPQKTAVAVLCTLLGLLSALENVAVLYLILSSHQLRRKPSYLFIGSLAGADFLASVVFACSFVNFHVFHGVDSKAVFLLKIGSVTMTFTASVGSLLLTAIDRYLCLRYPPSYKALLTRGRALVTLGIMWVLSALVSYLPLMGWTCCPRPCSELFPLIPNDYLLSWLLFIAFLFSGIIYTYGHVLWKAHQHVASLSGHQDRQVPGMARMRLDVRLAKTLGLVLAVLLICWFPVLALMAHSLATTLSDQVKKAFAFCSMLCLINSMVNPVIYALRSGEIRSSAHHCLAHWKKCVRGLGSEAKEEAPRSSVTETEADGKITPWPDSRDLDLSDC
Method: as §1
For CB2-receptor binding studies 3.8 µg of membrane recombinantly over-expressing CB2 (No. RBXCB2M, Perkin Elmer, Waltham, MA, US) were resuspended in 0.6 mL binding buffer (see above) together with 0.11 nM of the radioligand [^3H]CP55,940. The CB2-binding assay was conducted in the same manner as for CB1.

| SMILES | AEAT inhibition at 1 µM (Anandamide transport) | FAAH inhibition at 1 µM [1] | EC50 [2] | also measured |
| --- | --- | --- | --- | --- |
| CCCCCCC/C=C/C=C/C(=O)Nc1ccccc1 [Example 24] | 30 % of control | 2 % of control | – | – |
| CCCCCCC/C=C/C=C/C(=O)NCCc1ccco1 [Example 16] | 57 % of control | 42 % of control | 890 ± 400 nM | – |
| CCCCCCC/C=C/C=C/C(=O)NCCC(C)C [Compound C, (2E,4E)-N-isopentyldodeca-2,4-diene amide] | – | – | > 10000 nM | Ki (CB1): > 20000 nM; affinity towards CB1 (in words) (CB1; summary of Table 3): no affinity; CMC [3]: >5 µM; FAAH inhibition at 1 µM (FAAH; 1 µM, pig brain homogenate (assay D)): <10 % of control; Ki (CB2): 1455 ± 14 nM; affinity towards CB2 (in words) (CB2; summary of Table 3): moderate affinity |
| CCCCCCC/C=C/C=C/C(=O)NCc1ccc(OC)cc1 [Example 7, (2E,4E)-N-(4-methoxybenzyl)dodeca-2,4-diene amide] | 28 % of control | 6 % of control | – | effect on FAAH activity in combination with the FAAH inhibitor URB597 (FAAH; Figure 3, low nM concentrations): synergistic effects |
| CCCCCCC/C=C/C=C/C(=O)NCCc1ccccn1 [Example 68] | 41 % of control | -2 % of control | – | – |
| CCCCCCC/C=C/C=C/C(=O)NCC(C)O (centres unmarked) [Example 41] | 27 % of control | 45 % of control | – | – |
| CCCCCCC/C=C/C=C/C(=O)Nc1nc2cc(C)c(C)cc2s1 [Example 72] | 37 % of control | 30 % of control | – | – |
| CCCCCCC/C=C/C=C/C(=O)Nc1nccs1 [Example 20] | 47 % of control | -16 % of control | 780 ± 250 nM | – |
| CCCCCCC/C=C/C=C/C(=O)NCCc1ccnc(OC)c1 [Example 47] | 50 % of control | 6 % of control | – | – |
| CCCCCCC/C=C/C=C/C(=O)NCCc1ccsc1 [Example 19] | 34 % of control | 53 % of control | 520 ± 470 nM | – |
